Test results from PMC7037052, “Predicting the Blood-Brain Barrier Permeability of New Drug-Like Compounds via HPLC with Various Stationary Phases” (Molecules, 2020).

Key:
[1] = RP-HPLC retention on Purosphere RP-18e (ODS) column, buffer pH 7.4-acetonitrile; format: physicochemical; settings: for log kw, ODS: extrapolated to buffer pH 7.4 as mobile phase, 25 °C; for s ODS: slope of Soczewiński-Wachtmeister equation, acetonitrile φ 0.3–0.6
Method: (§1) Retention parameters reported as the log k values were calculated by the expression:(1) logk=log(tR−t0)/t0 where tR and t0 are the retention times of the solute and a non-retained compound (citric acid), respectively. They were used to calculate the log kw values, i.e., logarithms of retention parameter in the buffer as the mobile phase. For this purpose the Soczewiński-Wachtmeister’s equation was used:log k = log kw − sφ(2) where φ is the volume fraction of organic modifier in the mobile phase; k and kw are retention parameters corresponding to mixed effluent and buffer as the mobile phase, respectively. The slope s is characteristic of a given solute and chromatographic system. Strong linear relationships between log k and φ values were found for all the compounds in the range of effluent composition examined (R^2 > 0.9). The log kw values determined for the ODS (log kw, ODS), IAM (log kw, IAM) and Cholester (log kw, Cholester) columns were intercorrelated and the following linear relationships with a very good statistical quality were obtained:log kw, ODS = 0.691(± 0.094) + 0.982(± 0.044) log kw, IAM(3) SD = 0.257; R^2 = 0.8880; N = 65 log kw, ODS = 0.911(± 0.062) + 0.765(± 0.025) log kw, Cholester(4) SD = 0.192; R^2 = 0.9371; N = 65 log kw, IAM = 0.356(± 0.073) + 0.721(± 0.029) log kw, Cholester(5) SD = 0.224; R^2 = 0.9068; N = 65
(§2) Shimadzu Vp (Shimadzu, Izabelin, Poland) liquid chromatographic system equipped with LC 10AT pump, SPD 10A UV-Vis detector, SCL 10A system controller, CTO-10 AS chromatographic oven and Rheodyne injector valve with a 20 µL loop was applied in HPLC measurements. Three stationary phases were employed: • Purosphere RP-18e (ODS), 125 × 4 mm i.d., 5 µm (Merck); • IAM.PC.DD2 100 × 4.6 mm i.d., 10 µm (Regis Chemicals Company, Morton Grove, IL, USA); • Cosmosil Cholester, 75 × 2 mm i.d., 2.5 µm (Genore, Warsaw, Poland).
(§3) As mobile phases buffer-acetonitrile mixtures were used. The buffer was prepared from 0.01 mol L^−1 solutions of Na2HPO4 and citric acid and the pH 7.4 value was fixed before mixing with organic modifier. With the ODS column acetonitrile concentration in the effluent, expressed as a volume fraction (φ, v/v), was changed in the range 0.3–0.6, with the constant step of 0.1. The flow rate was 1 mL min^−1. With the IAM column acetonitrile concentration was changed in the range 0.2–0.5, also with the constant step of 0.1 and the flow rate was 1.3 mL min^−1. With the Cosmosil Cholester column acetonitrile concentration was changed in the range 0.4–0.6, with the constant step of 0.05 and the flow rate was 0.4 mL min^−1. Samples of test compounds were dissolved in acetonitrile—c.a. 0.005 mg mL^−1. […] They were detected under UV light at 210 and 254 nm. All measurements were carried out at 25 °C. The dead time values were measured from non-retained compound (citric acid) peaks. All reported log kw values are the average of at least three independent measurements. The extrapolated retention coefficients (logs kw) achieved by HPLC on ODS, IAM and Cholester stationary phases were used for modelling the log BB permeation of 65 drug-like compounds employed as a whole test set (Table 1).

[2] = RP-HPLC retention on IAM.PC.DD2 (immobilized artificial membrane) column, buffer pH 7.4-acetonitrile; format: physicochemical; settings: for log kw, IAM: extrapolated to buffer pH 7.4 as mobile phase, 25 °C; for s IAM: slope of Soczewiński-Wachtmeister equation, acetonitrile φ 0.2–0.5
Method: as §1, §2, §3

[3] = RP-HPLC retention on Cosmosil Cholester column, buffer pH 7.4-acetonitrile; format: physicochemical; settings: for log kw, Cholester: extrapolated to buffer pH 7.4 as mobile phase, 25 °C; for s Cholester: slope of Soczewiński-Wachtmeister equation, acetonitrile φ 0.4–0.6
Method: as §1, §2, §3

[4] = system: human cancer cells; parameters: method as in doi:10.1016/j.arabjc.2016.12.024, PMID 24126095; settings: cited from earlier work
[5] = system: normal cells; parameters: method as in doi:10.1016/j.arabjc.2016.12.024, PMID 24126095; settings: cited from earlier work

| SMILES | log kw, ODS [1] | s ODS [1] | log kw, IAM [2] | s IAM [2] | log kw, Cholester [3] | s Cholester [3] | antiproliferative activities in human cancer cells [4] | toxic effects for normal cells [5] |
| --- | --- | --- | --- | --- | --- | --- | --- | --- |
| CCOC(=O)Cc1nnc2n(c1=O)CCN2c1cccc(Cl)c1 [Compound 15] | 2.85 | 4.90 | 2.05 | 4.45 | 2.41 | 4.15 | significant antiproliferative activities | less toxic effects |
| Cc1cccc(N2CCn3c2nnc(-c2ccco2)c3=O)c1C [Compound 21] | 2.26 | 4.20 | 1.42 | 3.51 | 1.66 | 3.33 | significant antiproliferative activities | less toxic effects |
| O=c1c(CCc2ccccc2)nnc2n1CCN2c1ccc(Cl)cc1 [Compound 64] | 3.56 | 5.81 | 2.68 | 5.44 | 3.22 | 5.12 | significant antiproliferative activities | less toxic effects |
| CCc1nnc2n(c1=O)CCN2c1ccccc1 [Compound 1] | 0.97 | 2.70 | 0.55 | 2.10 | 0.20 | 1.25 | significant antiproliferative activities | less toxic effects |
| O=c1c(-c2ccco2)nnc2n1CCN2c1c(Cl)cccc1Cl [Compound 28] | 2.53 | 4.45 | 1.70 | 3.90 | 2.05 | 3.66 | significant antiproliferative activities | less toxic effects |
| O=c1c(-c2ccco2)nnc2n1CCN2c1ccccc1Cl [Compound 24] | 2.25 | 4.22 | 1.27 | 3.25 | 1.34 | 2.95 | significant antiproliferative activities | less toxic effects |
| O=c1c(-c2ccco2)nnc2n1CCN2c1cccc(Cl)c1 [Compound 25] | 2.75 | 4.85 | 2.08 | 4.55 | 2.36 | 4.05 | – | – |
| Cc1ccc(N2CCn3c2nnc(Cc2cccc(C)c2)c3=O)cc1 [Compound 47] | 3.09 | 5.24 | 2.59 | 5.14 | 3.09 | 5.06 | – | – |
| COC(=O)Cc1nnc2n(c1=O)CCN2c1ccccc1 [Compound 7] | 1.28 | 3.09 | 0.81 | 2.38 | 0.58 | 1.92 | – | – |
| O=c1c(Cc2cccc(Cl)c2)nnc2n1CCN2c1ccc(Cl)cc1 [Compound 59] | 3.61 | 5.85 | 3.15 | 6.01 | 3.67 | 5.75 | – | – |
| O=c1c(Cc2ccccc2)nnc2n1CCN2c1ccc(Cl)cc1 [Compound 57] | 3.11 | 5.05 | 2.52 | 5.06 | 2.98 | 4.85 | – | – |
| O=c1c(-c2ccccc2)nnc2n1CCN2c1cccc(Cl)c1 [Compound 38] | 3.29 | 5.70 | 2.64 | 5.41 | 3.20 | 5.20 | – | – |
| O=c1c(-c2ccccc2)nnc2n1CCN2c1ccccc1Cl [Compound 37] | 2.43 | 4.60 | 1.73 | 3.84 | 1.96 | 3.65 | – | – |
| O=c1c(-c2ccco2)nnc2n1CCN2c1ccc(Cl)c(Cl)c1 [Compound 27] | 3.46 | 5.68 | 3.23 | 6.30 | 2.92 | 4.85 | – | – |
| O=c1c(Cc2ccccc2)nnc2n1CCN2c1ccccc1 [Compound 41] | 2.90 | 5.02 | 3.26 | 6.45 | 2.23 | 3.75 | – | – |
| O=c1c(-c2ccco2)nnc2n1CCN2c1ccc(Cl)cc1 [Compound 26] | 2.65 | 4.59 | 2.02 | 4.44 | 2.29 | 4.15 | – | – |
| Cc1ccccc1N1CCn2c1nnc(Cc1ccccc1Cl)c2=O [Compound 56] | 3.01 | 4.95 | 2.02 | 4.31 | 2.34 | 4.05 | – | – |
| COc1ccccc1N1CCn2c1nnc(-c1ccccc1)c2=O [Compound 33] | 1.98 | 3.99 | 1.47 | 3.62 | 1.69 | 2.94 | – | – |
| O=c1c(-c2ccco2)nnc2n1CCN2c1ccccc1 [Compound 18] | 2.12 | 4.06 | 1.29 | 3.23 | 1.43 | 3.12 | – | – |
| Cc1ccc(N2CCn3c2nnc(CCc2ccccc2)c3=O)cc1 [Compound 62] | 3.23 | 5.44 | 2.41 | 5.01 | 2.84 | 4.70 | – | – |
| Cc1ccc(N2CCn3c2nnc(Cc2ccccc2Cl)c3=O)cc1 [Compound 48] | 3.12 | 5.11 | 2.65 | 5.21 | 3.24 | 4.90 | – | – |
| O=c1c(CCc2ccccc2)nnc2n1CCN2c1ccccc1 [Compound 61] | 2.80 | 4.92 | 2.07 | 4.45 | 2.33 | 4.02 | – | – |
| COc1ccc(N2CCn3c2nnc(-c2ccco2)c3=O)cc1 [Compound 23] | 1.91 | 3.82 | 1.19 | 3.13 | 1.53 | 3.05 | – | – |
| Cc1ccc(N2CCn3c2nnc(Cc2ccc(Cl)cc2)c3=O)cc1 [Compound 50] | 3.22 | 5.55 | 2.81 | 5.62 | 3.39 | 5.34 | – | – |
| CCOC(=O)Cc1nnc2n(c1=O)CCN2c1ccc(Cl)cc1 [Compound 16] | 2.80 | 4.88 | 2.11 | 4.51 | 2.37 | 4.19 | – | – |
| O=c1c(Cc2ccc(Cl)cc2)nnc2n1CCN2c1ccccc1 [Compound 44] | 3.60 | 5.62 | 2.39 | 4.81 | 3.01 | 4.70 | – | – |
